Test [1] addresses Histone deacetylase. As to conditions: hela.
Description: Inhibition of HDAC in human HeLa cells
For test [2], the system named is HCT-116. Put plainly: Antitumor activity against human HCT116 cells xenografted in mouse at 30 mg/kg. Type of test: functional. In general terms: In xenograft studies the graft and the host belong to different species.
Test [3] deals with Histone deacetylase 3 (Homo sapiens, UniProt O15379). Put plainly: Inhibition of recombinant HDAC3.
The target in test [4] is Histone deacetylase 2 (Homo sapiens, UniProt Q92769). The test is described as follows: Inhibition of recombinant HDAC2.
Chain of Histone deacetylase 2 (Q92769 whole entry): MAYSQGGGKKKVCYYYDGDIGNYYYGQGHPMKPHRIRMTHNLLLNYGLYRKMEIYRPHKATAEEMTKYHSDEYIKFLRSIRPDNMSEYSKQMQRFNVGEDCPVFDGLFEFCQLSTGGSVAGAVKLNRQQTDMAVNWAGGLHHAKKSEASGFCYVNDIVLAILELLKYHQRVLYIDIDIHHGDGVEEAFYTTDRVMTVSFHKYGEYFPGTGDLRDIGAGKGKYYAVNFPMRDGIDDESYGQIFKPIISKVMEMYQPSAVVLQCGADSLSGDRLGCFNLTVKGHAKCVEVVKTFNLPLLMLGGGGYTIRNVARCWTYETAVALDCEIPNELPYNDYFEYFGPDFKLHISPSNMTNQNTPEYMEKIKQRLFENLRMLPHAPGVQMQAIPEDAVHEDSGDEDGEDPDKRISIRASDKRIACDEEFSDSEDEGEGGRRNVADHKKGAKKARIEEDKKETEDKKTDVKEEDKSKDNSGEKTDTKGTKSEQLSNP
For test [5], the target named is T1, Histone deacetylase 8 (Homo sapiens, UniProt Q9BY41).
T1 sequence (Q9BY41 whole entry): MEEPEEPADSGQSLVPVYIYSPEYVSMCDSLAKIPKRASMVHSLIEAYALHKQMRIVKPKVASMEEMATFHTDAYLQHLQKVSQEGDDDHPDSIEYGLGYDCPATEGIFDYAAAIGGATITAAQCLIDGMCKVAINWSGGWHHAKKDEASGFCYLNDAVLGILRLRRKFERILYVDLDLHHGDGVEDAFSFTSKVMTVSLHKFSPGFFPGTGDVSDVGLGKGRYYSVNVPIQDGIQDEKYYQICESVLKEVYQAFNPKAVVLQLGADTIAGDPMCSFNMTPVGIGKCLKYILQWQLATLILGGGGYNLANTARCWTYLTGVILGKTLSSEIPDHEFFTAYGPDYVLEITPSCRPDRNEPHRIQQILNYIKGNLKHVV
Put plainly: Inhibition of recombinant HDAC8.

In test [6] the target is Histone deacetylase 1 (Homo sapiens, UniProt Q13547). The test is described as follows: Inhibition of recombinant HDAC1.
Chain of Histone deacetylase 1 (Q13547 whole entry): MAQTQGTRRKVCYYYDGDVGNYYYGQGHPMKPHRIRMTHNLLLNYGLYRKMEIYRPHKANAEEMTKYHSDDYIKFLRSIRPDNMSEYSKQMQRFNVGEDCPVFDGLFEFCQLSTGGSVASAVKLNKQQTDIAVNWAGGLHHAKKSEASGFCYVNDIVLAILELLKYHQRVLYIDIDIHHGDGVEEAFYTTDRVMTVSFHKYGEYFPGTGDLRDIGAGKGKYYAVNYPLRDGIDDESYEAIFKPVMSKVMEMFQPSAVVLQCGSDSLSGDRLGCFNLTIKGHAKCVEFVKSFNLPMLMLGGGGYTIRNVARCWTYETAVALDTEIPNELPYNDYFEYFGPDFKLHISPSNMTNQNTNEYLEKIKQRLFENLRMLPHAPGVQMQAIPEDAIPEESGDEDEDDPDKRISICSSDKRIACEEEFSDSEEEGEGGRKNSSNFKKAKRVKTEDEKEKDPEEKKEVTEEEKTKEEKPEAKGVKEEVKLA
Test [7] has as its target T2, Protein deacetylase HDAC6 (Homo sapiens, UniProt Q9UBN7).
T2 sequence (Q9UBN7 whole entry): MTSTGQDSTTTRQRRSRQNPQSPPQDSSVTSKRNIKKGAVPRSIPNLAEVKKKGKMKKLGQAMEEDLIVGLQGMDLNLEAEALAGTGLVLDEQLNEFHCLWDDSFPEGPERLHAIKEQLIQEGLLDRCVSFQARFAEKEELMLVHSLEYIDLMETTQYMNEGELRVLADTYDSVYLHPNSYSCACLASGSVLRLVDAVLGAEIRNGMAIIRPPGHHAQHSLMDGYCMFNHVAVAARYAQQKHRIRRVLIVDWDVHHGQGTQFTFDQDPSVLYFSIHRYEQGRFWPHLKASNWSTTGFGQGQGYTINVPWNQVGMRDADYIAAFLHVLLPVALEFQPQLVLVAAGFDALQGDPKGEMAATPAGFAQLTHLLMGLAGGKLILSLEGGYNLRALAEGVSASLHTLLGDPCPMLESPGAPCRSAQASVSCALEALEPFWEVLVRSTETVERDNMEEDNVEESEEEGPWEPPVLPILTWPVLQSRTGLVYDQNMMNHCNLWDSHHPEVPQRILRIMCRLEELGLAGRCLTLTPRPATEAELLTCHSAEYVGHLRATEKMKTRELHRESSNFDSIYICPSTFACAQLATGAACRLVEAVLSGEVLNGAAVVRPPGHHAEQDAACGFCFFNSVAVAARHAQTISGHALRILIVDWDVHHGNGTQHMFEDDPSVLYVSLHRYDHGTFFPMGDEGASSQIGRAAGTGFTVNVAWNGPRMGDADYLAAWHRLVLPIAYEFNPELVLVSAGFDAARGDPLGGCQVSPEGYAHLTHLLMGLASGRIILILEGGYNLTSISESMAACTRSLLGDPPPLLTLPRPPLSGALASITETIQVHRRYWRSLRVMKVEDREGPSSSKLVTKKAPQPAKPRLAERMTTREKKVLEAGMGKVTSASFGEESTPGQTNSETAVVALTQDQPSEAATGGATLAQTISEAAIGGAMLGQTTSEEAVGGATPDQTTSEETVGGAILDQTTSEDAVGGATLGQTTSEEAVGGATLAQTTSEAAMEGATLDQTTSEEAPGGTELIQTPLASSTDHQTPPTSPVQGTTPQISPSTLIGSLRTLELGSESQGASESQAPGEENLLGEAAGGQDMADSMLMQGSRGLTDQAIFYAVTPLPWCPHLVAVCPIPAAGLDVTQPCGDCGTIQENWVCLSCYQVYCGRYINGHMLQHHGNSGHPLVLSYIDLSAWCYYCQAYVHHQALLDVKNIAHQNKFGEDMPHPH
Put plainly: Inhibition of recombinant HDAC6.

Test [8] deals with T3, Polyamine deacetylase HDAC10 (Homo sapiens, UniProt Q969S8).
T3 sequence (Q969S8 whole entry): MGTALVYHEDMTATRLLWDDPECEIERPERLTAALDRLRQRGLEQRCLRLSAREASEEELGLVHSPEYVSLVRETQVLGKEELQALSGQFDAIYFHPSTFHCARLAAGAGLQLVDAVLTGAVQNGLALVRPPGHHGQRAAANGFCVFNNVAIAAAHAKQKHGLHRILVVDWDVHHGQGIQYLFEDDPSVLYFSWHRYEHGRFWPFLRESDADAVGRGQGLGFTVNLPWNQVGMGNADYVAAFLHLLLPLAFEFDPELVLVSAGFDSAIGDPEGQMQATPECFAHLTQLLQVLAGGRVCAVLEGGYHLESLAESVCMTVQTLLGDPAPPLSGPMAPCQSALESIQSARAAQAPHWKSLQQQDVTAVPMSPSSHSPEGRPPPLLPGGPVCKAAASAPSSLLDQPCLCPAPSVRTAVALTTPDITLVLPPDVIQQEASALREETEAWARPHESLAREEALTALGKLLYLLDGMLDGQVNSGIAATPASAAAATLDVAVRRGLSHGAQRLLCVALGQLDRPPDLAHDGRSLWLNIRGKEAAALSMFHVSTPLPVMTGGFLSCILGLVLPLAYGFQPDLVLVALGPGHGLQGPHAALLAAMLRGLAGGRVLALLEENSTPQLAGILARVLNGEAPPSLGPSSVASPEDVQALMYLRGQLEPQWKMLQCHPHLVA
The test is described as follows: Inhibition of HDAC10.

Non-standard residues stand in square brackets, D forms with d. Residues, ends and D or L forms follow the SMILES beside them. *: point of attachment. Ala(indol-2-yl) = N[C@@H](Cc1cc2ccccc2[nH]1)C(=O)O; Asu = N[C@@H](CCCCCC(=O)O)C(=O)O; β3hI = CC[C@H](C)[C@H](N)CC(=O)O; NHOH = ON*

Chain of Histone deacetylase 3 (O15379 whole entry): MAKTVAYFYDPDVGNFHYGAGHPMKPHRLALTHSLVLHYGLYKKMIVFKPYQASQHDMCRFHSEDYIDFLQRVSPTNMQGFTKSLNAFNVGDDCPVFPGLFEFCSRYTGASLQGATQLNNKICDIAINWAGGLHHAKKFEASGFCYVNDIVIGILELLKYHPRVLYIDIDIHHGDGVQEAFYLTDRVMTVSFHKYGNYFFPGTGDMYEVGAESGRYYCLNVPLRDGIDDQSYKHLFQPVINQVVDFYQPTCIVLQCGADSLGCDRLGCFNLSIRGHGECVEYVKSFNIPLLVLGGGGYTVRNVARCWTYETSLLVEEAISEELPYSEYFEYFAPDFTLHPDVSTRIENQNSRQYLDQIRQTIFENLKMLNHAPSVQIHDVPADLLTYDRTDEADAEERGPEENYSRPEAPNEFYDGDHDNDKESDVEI

For orientation: IC50 means the midpoint of a concentration-inhibition curve. As to `O=C(CS)NCCCCCC(=O)Nc1cccc2cccnc12`, the half-inhibitory concentration (IC50) in test [1] was 900 nM.

In the case of `CCC(=O)CCCCC[C@@H]1NC(=O)CNC(=O)C[C@H]([C@@H](C)CC)NC(=O)[C@H](Cc2cc3ccccc3[nH]2)N(C)C1=O`, in test [1], the IC50 is on record as > 10000 nM.

As a reminder, the inhibition in vivo is the relative decrease from the control value, in per cent. A high value points to a response far below the control. Turning to `CC(=O)Nc1ccc(C(=O)Nc2ccccc2N)cc1` [TACEDINALINE], 30 mg/kg produced 52% inhibition in vivo in test [2].

As to `N=C/C=N/c1ccc(C(=O)Nc2cc(-c3cccs3)ccc2N)cc1`, the IC50 was > 20000 nM in test [3]; 20 nM in test [4]; > 20000 nM in test [5]; 60 nM in test [6]; > 20000 nM in test [7].

In test [1], `CCC(=O)CCCCC[C@@H]1NC(=O)CNC(=O)C[C@H]([C@@H](C)CC)N(C)C(=O)[C@H](Cc2cc3ccccc3[nH]2)NC1=O` gave an IC50 of 2000 nM.

With `O=C(CS)NCCCCCC(=O)Nc1ccc2ncccc2c1`, the IC50 in test [1] worked out at 900 nM.

The compound `Cn1c(/C=C/C(=O)NO)ccc1C(=O)c1ccccc1` showed an IC50 in test [8] of 280 nM.

For the compound `COc1ccc(C(=O)Nc2cc(-c3cccs3)ccc2N)cc1`, the IC50 in test [3], in test [5] and in test [7] was > 20000 nM each time.

Compound `CC[C@H](C)[C@H]1CC(=O)NCC(=O)N[C@@H](CCCCCC(=O)O)C(=O)N[C@@H](Cc2cc3ccccc3[nH]2)C(=O)N1` (cyclo([Asu][Ala(indol-2-yl)][β3hI]G)) displayed an IC50 in test [1] of 300 nM.

`CC[C@H](C)[C@H]1CC(=O)NCC(=O)N[C@@H](CCCCCC(N)=O)C(=O)N[C@@H](Cc2cc3ccccc3[nH]2)C(=O)N1` (cyclo([Asu](NH2)[Ala(indol-2-yl)][β3hI]G)) yielded a half-inhibitory concentration (IC50) in test [1] of 2700 nM.

In test [1], `CCC(=O)CCCCC[C@@H]1NC(=O)[C@H](C)NC(=O)C[C@H]([C@@H](C)CC)NC(=O)[C@H](Cc2cc3ccccc3[nH]2)NC1=O` came in with an IC50 of 40 nM.

For `Cn1cc(/C=C/C(=O)NO)cc1C(=O)c1ccccc1`, the IC50 in test [8] was found to be 50 nM.

For `CC[C@H](C)[C@H]1CC(=O)NCC(=O)N[C@@H](CCCCCC(=O)NO)C(=O)N[C@@H](Cc2cc3ccccc3[nH]2)C(=O)N1` (cyclo([Asu](NHOH)[Ala(indol-2-yl)][β3hI]G)), the IC50 in test [1] is given as < 1 nM.

In test [1], `CCC(=O)CCCCC[C@@H]1NC(=O)CNC(=O)C[C@H]([C@@H](C)CC)NC(=O)[C@H](Cc2cc3ccccc3[nH]2)NC1=O` displayed an IC50 of 19 nM.

Turning to `CC(=O)Nc1ccc(C(=O)Nc2cc(-c3cccs3)ccc2N)cc1`, the IC50 in test [5] was > 20000 nM.
